Source: patent US7618816B2, “Metal-binding therapeutic peptides” (Ontherix, Inc., priority 2005, dated 2009)
“And” between values parts separate entries of the source, which are not always exact repeats. Equal entries are not always repeated. Where a SMILES comes first, the peptide text is derived from it. The star is where a group is joined. Biotin = O=C1N[C@H]2[C@H](CS[C@H]2CCCCC(=O)*)N1

What was measured:
Hs578T = experiment: Cytotoxicity of MBD therapeutic peptides; assay type: cell-based; settings: relative to equal dose of control MBD peptide, only p < 0.05 shown, 1-4 experiments
Source text: (§1) Also, peptides such as NFKB and CSK are of interest, targeting stress-coping mechanisms such as inflammation. The breast cancer lines tested are HS578T, MX-1, MDA-MB231, MDA-MB435 and MCF7. Leukemia cell lines tested for cytotoxicity effects with these MBD-tagged peptides are CCRF-CEM, RPMI-8226 and MOLT-4. Overall, MCF-7 and CCRF-CEM yield the most consistent data and the strongest effect across the board (Table 12). In addition, elevated levels of cytotoxicity are observed when multiple peptides are combined while keeping the overall amount of peptide added constant. Cytotoxicity increases with the number of peptides added per cocktail and is further enhanced by combining peptide cocktail treatment with paclitaxel.

MDA-MB435 = experiment: Cytotoxicity of MBD therapeutic peptides; assay type: cell-based; settings: relative to equal dose of control MBD peptide, only p < 0.05 shown, 1-4 experiments
Source text: as §1

MOLT-4 = experiment: Cytotoxicity of MBD therapeutic peptides; assay type: cell-based, human; settings: relative to equal dose of control MBD peptide, only p < 0.05 shown, 1-4 experiments
Source text: as §1

RPMI-8826 = experiment: Cytotoxicity of MBD therapeutic peptides; assay type: cell-based, human; settings: relative to equal dose of control MBD peptide, only p < 0.05 shown, 1-4 experiments
Source text: as §1

CCRF-CEM = experiment: Cytotoxicity of MBD therapeutic peptides; assay type: cell-based, human; settings: relative to equal dose of control MBD peptide, only p < 0.05 shown, 1-4 experiments
Source text: as §1

MDA-MB231 = experiment: Cytotoxicity of MBD therapeutic peptides; assay type: cell-based, human; settings: relative to equal dose of control MBD peptide, only p < 0.05 shown, 1-4 experiments
Source text: as §1

MX-I = experiment: Cytotoxicity of MBD therapeutic peptides; assay type: cell-based, human; settings: relative to equal dose of control MBD peptide, only p < 0.05 shown, 1-4 experiments
Source text: as §1

MCF-7 = experiment: Cytotoxicity of MBD therapeutic peptides; assay type: cell-based, human; settings: relative to equal dose of control MBD peptide, only p < 0.05 shown, 1-4 experiments
Source text: as §1

cancer cells = experiment: Selective cytotoxicity, cancer cells versus normal counterparts; assay type: cell-based, human
Source text: as §1

SR = experiment: Cytotoxicity of MBD therapeutic peptides; assay type: cell-based; settings: relative to equal dose of control MBD peptide, only p < 0.05 shown, 1-4 experiments

CSCC[C@H](NC(=O)[C@H](CC(C)C)NC(=O)[C@H](CCCCN)NC(=O)[C@H](CCC(N)=O)NC(=O)[C@H](CCCNC(=N)N)NC(=O)[C@H](CCCCN)NC(=O)[C@H](CCCNC(=N)N)NC(=O)[C@H](CCC(N)=O)NC(=O)[C@@H](NC(=O)[C@@H]1CCCN1C(=O)[C@H](C)NC(=O)[C@H](Cc1c[nH]c2ccccc12)NC(=O)[C@H](CS)NC(=O)[C@H](Cc1ccccc1)NC(=O)CNC(=O)[C@H](CCCNC(=N)N)NC(=O)[C@H](CCCCN)NC(=O)[C@H](CCCNC(=N)N)NC(=O)CNC(=O)[C@H](CCCCN)NC(=O)[C@H](CO)NC(=O)[C@@H]1CCCN1C(=O)[C@H](CCCNC(=N)N)NC(=O)[C@H](CS)NC(=O)[C@H](CCC(N)=O)NC(=O)[C@H](CCCCN)NC(=O)[C@H](CCCCN)NC(=O)[C@H](CCCCN)NC(=O)[C@H](Cc1ccc(O)cc1)NC(=O)[C@H](Cc1ccccc1)NC(=O)CNC(=O)[C@H](CCCCN)NC(=O)[C@H](CCCCN)NC(=O)CCCC[C@@H]1SC[C@@H]2NC(=O)N[C@@H]21)C(C)C)C(=O)N1CCC[C@H]1C(=O)O [NFKB] (Biotin-KKGFYKKKQCRPSKGRKRGFCWAPVQRKRQKLMP-OH)
% viability @ 48 hr/25 ug/ml peptide, Hs578T (Hs578T): 36.3 ± 5.6% and 30.6 ± 2.7%
% viability @ 48 hr/25 ug/ml peptide, MDA-MB435 (MDA-MB435): 18.0 ± 1.6% and 29.6 ± 2.6%
% viability @ 48 hr/25 ug/ml peptide, MOLT-4 (MOLT-4): 35.9 ± 6.8% and 22.5 ± 3.5%
% viability @ 48 hr/25 ug/ml peptide, RPMI-8826 (RPMI-8826): 64.6 ± 14.3%
% viability @ 48 hr/25 ug/ml peptide, CCRF-CEM (CCRF-CEM): 47.4 ± 13.9%
% viability @ 48 hr/25 ug/ml peptide, MDA-MB231 (MDA-MB231): 91.6 ± 6.1%
% viability @ 48 hr/25 ug/ml peptide, MX-I (MX-I): 74.1 ± 6.1%
% viability @ 48 hr/25 ug/ml peptide, MCF-7 (MCF-7): 32.8 ± 17.7%

CC(C)C[C@H](NC(=O)[C@H](CC(C)C)NC(=O)[C@H](CCCCN)NC(=O)[C@H](Cc1c[nH]c2ccccc12)NC(=O)[C@@H](NC(=O)[C@H](CC(=O)O)NC(=O)[C@H](CO)NC(=O)[C@H](Cc1ccccc1)NC(=O)[C@@H](NC(=O)[C@H](CCC(=O)O)NC(=O)CCCC[C@@H]1SC[C@@H]2NC(=O)N[C@@H]21)[C@@H](C)O)C(C)C)C(=O)N[C@@H](CCCCN)C(=O)N[C@@H](CCCCN)C(=O)NCC(=O)N[C@@H](Cc1ccccc1)C(=O)N[C@@H](Cc1ccc(O)cc1)C(=O)N[C@@H](CCCCN)C(=O)N[C@@H](CCCCN)C(=O)N[C@@H](CCCCN)C(=O)N[C@@H](CCC(N)=O)C(=O)N[C@@H](CS)C(=O)N[C@@H](CCCNC(=N)N)C(=O)N1CCC[C@H]1C(=O)N[C@@H](CO)C(=O)N[C@@H](CCCCN)C(=O)NCC(=O)N[C@@H](CCCNC(=N)N)C(=O)N[C@@H](CCCCN)C(=O)N[C@@H](CCCNC(=N)N)C(=O)NCC(=O)N[C@@H](Cc1ccccc1)C(=O)N[C@@H](CS)C(=O)N[C@@H](Cc1c[nH]c2ccccc12)C(=O)O [PEP-2] (Biotin-ETFSDVWKLLKKGFYKKKQCRPSKGRKRGFCW-OH)
% viability @ 48 hr/25 ug/ml peptide, Hs578T (Hs578T): 31.1 ± 3.0% and 33.5 ± 2.3%
% viability @ 48 hr/25 ug/ml peptide, MDA-MB435 (MDA-MB435): 18.5 ± 1.0%
Cytotoxic effect on cancer cells versus normal counterparts (in words) (cancer cells): strong cytotoxic effect on cancer cells but not their human counterparts
% viability @ 48 hr/25 ug/ml peptide, SR (SR): 33.7 ± 16.0%
% viability @ 48 hr/25 ug/ml peptide, MOLT-4 (MOLT-4): 63.5 ± 7.7% and 57.9 ± 1.3% and 88.2 ± 2.6%
% viability @ 48 hr/25 ug/ml peptide, RPMI-8826 (RPMI-8826): 38.4 ± 4.2%
% viability @ 48 hr/25 ug/ml peptide, MDA-MB231 (MDA-MB231): 40.7 ± 1.8%
% viability @ 48 hr/25 ug/ml peptide, MX-I (MX-I): 6.8 ± 1.5% and 9.0 ± 0.6%
% viability @ 48 hr/25 ug/ml peptide, MCF-7 (MCF-7): 19.3 ± 6.3% and 33.5 ± 4.4% and 35.6 ± 5.7%
